# Experimental data as given in patent US20030153590A1, “Method of treating alcoholism or alcohol abuse” (OY CONTRAL PHARMA LTD, priority 2001, published 2003).
# What was measured:
# [1] = cited from earlier work
# [2] = In vitro permeation study, MDCK cell membranes; type: in vitro ADME, canine; details: dog
# Description: (§1) MDCK cells were seeded onto the coated filters at a concentration of about 100,000 cells/cm^2. The culture medium was both in apical and basolateral chambers during the whole culture period, and the culture medium was changed every day. The cells were confluent within three days. […] The incubator environment was the same as described above.
# (§2) MDCK cells were used for the permeation study on the 4th day when the TER value was about 250 Ω×cm^2. HBSS (Gibco, Paisley, Skotlanti) /10 mM HEPES was used a buffer solution. The permeation study was performed as described above. All the permeation studies were performed at 37° C. using a horizontal plate mixer (Heidolph Inkubator 1000 and Titramax 1000; Heidolph Electro GmbH & Co., Kelheim, Germany). After the studies, TER was metered. The TER data were not changed during the permeability studies.
# (§3) The apparent permeability coefficients were calculated as:
# (§4) Papp=J/(C×S), (Equation 1)
# (§5) Cs is the water solubility of nalmefene.
# MDCK cell membranes = experiment: In vitro permeation study, MDCK cell membranes; type: in vitro ADME, canine
# Description: as §1, §2, §3, §4, §5
# [3] = In vitro permeation study, HCE cell membranes; details: human
# HCE cell membranes = experiment: In vitro permeation study, HCE cell membranes; details: HCE, Papp × water solubility
# [4] = tested on: subjects with impaired control of alcohol drinking; experiment: Randomized, double-blind, placebo-controlled dose-response study of nalmefene once daily for 16 weeks; type: in vivo, human; details: for Spouse or significant other estimate of frequency of intoxication: At least once a week (number of subjects) / Spouse or significant other estimate of frequency of intoxication: At least once a week (share of subjects) / Spouse or significant other estimate of frequency of intoxication: Every day (number of subjects) / Spouse or significant other estimate of frequency of intoxication: Every day (share of subjects) / Spouse or significant other estimate of frequency of intoxication: Never (number of subjects) / Spouse or significant other estimate of frequency of intoxication: Never (share of subjects) / Spouse or significant other estimate of frequency of intoxication: Once or twice (number of subjects) / Spouse or significant other estimate of frequency of intoxication: Once or twice (share of subjects) / Spouse or significant other estimate of frequency of intoxication: Several times a month (number of subjects) / Spouse or significant other estimate of frequency of intoxication: Several times a month (share of subjects): week 16
# Description: A randomized, double-blind, placebo-controlled, multicenter, parallel group, dose-response study was conducted comparing placebo and two doses of nalmefene.
# The subjects were randomly allocated to receive placebo, 10 mg of nalmefene or 40 mg of nalmefene once daily for 16 weeks. […] During their participation in the study, the subjects were allowed to receive general counseling, but not any psychotherapy or other specific alcoholism treatment, including pharmacotherapy. The study consisted of a screening period (screening and inclusion visits) not exceeding 2 weeks, during which the eligibility of the study subjects were evaluated, and follow-up visits at 1, 3, 6, 9, 12, and 16 weeks after the study medication was started.
# The alcohol consumption was assessed with the Time Line Follow Back Method. The primary efficacy variable was the number of Heavy Drinking Days (HDDs) per month (defined as 28 days). A Heavy Drinking Day (HDD) was defined as a day when a male subject consumed 5 or more, or a female subject consumed 4 or more standard drinks. A standard drink contains approximately 12 g of ethanol. Secondary efficacy measures included other drinking variables (number of Drinking Days (DDs), ratio of HDDs to DDs, total consumption, and maximum and average intensity of drinking), Obsessive Compulsive Drinking Scale (OCDS), Alcohol Dependence Scale (ADS) and Drinkers Inventory of Consequences -scale (DrInC), clinical laboratory markers (ALAT, GGT, CDT, and MCV) and collateral reports.
# The monthly drinking of the subjects during the 12 weeks prior to the study was determined first to get a baseline. The total alcohol consumption was 25% higher in the FAH+ subject than in the FAH− subject. The number of HDDs and the number of DDs were at a similar level in all subgroups.
# The estimate on the subject's frequency of intoxication by subject's spouse or significant other was obtained again at the end of the study. Within the FAH+ subjects, there were more subjects in nalmefene 40 mg groups in categories “never” and “once or twice” than in other groups, and no subjects in the categories “at least once a week” or “every day”.
structure (smiles),measurement,setting,value
C=C1CC[C@@]2(O)[C@H]3Cc4ccc(O)c5c4[C@@]2(CCN3CC2CC2)[C@H]1O5 [nalmefene],pKa,[1],7.63
same,"Papp A→B at 180 min, 500 μM","[2]; pH 6.5, n = 4, read-out: Permeability factor (Papp ± SD)",11.4 ± 0.59 ×10⁻⁶ cm/s
same,"Papp A→B at 180 min, 500 μM","[2]; pH 7.0, n = 4, read-out: Permeability factor (Papp ± SD)",18.27 ± 0.16 ×10⁻⁶ cm/s
same,"Papp A→B at 180 min, 500 μM","[2]; pH 7.5, n = 4, read-out: Permeability factor (Papp ± SD)",22.7 ± 1.08 ×10⁻⁶ cm/s
same,"Papp A→B at 180 min, 500 μM","[2]; pH 8.0, n = 4, read-out: Permeability factor (Papp ± SD)",23.9 ± 2.49 ×10⁻⁶ cm/s
same,Maximal administration rate Jmax × 10^−6 ± SD,"MDCK cell membranes; pH 6.5, n = 4, Papp × water solubility",1273 ± 66 × 10^−6 mg/(cm^2 s)
same,Maximal administration rate Jmax × 10^−6 ± SD,"MDCK cell membranes; pH 7.0, n = 4, Papp × water solubility",1618 ± 14 × 10^−6 mg/(cm^2 s)
same,Maximal administration rate Jmax × 10^−6 ± SD,"MDCK cell membranes; pH 7.5, n = 4, Papp × water solubility",723 ± 34 × 10^−6 mg/(cm^2 s)
same,Maximal administration rate Jmax × 10^−6 ± SD,"MDCK cell membranes; pH 8.0, n = 4, Papp × water solubility",10.6 ± 1.1 × 10^−6 mg/(cm^2 s)
same,"Papp A→B at 180 min, 500 μM",[3]; pH 6.5,7.86 ± 0.29 ×10⁻⁶ cm/s
same,"Papp A→B at 180 min, 500 μM",[3]; pH 7,12.1 ± 0.79 ×10⁻⁶ cm/s
same,"Papp A→B at 180 min, 500 μM",[3]; pH 7.5,13.3 ± 0.61 ×10⁻⁶ cm/s
same,"Papp A→B at 180 min, 500 μM",[3]; pH 8,13.6 ± 1.64 ×10⁻⁶ cm/s
same,Maximal administration rate Jmax × 10^−6 ± SD,"HCE cell membranes; pH 6.5, n = 4",879 ± 32 × 10^−6 mg/(cm^2 s)
same,Maximal administration rate Jmax × 10^−6 ± SD,"HCE cell membranes; pH 7.0, n = 4",1072 ± 70 × 10^−6 mg/(cm^2 s)
same,Maximal administration rate Jmax × 10^−6 ± SD,"HCE cell membranes; pH 7.5, n = 4",423 ± 19 × 10^−6 mg/(cm^2 s)
same,Maximal administration rate Jmax × 10^−6 ± SD,"HCE cell membranes; pH 8.0, n = 4",6.0 ± 0.7 × 10^−6 mg/(cm^2 s)
same,number of HDDs,"[4]; FAH+ subjects, 10 mg once daily",smaller reduction in the early phase of the treatment
same,total alcohol consumption and number of HDDs,"[4]; FAH+ subjects, 10 mg, first month of treatment",positive tendency
same,Spouse or significant other estimate of frequency of intoxication: At least once a week (number of subjects),"[4]; FAH+ subjects, 10 mg",4
same,Spouse or significant other estimate of frequency of intoxication: At least once a week (share of subjects),"[4]; FAH+ subjects, 10 mg",21%
same,Spouse or significant other estimate of frequency of intoxication: Every day (number of subjects),"[4]; FAH+ subjects, 10 mg",0
same,Spouse or significant other estimate of frequency of intoxication: Every day (share of subjects),"[4]; FAH+ subjects, 10 mg",0%
same,Spouse or significant other estimate of frequency of intoxication: Never (number of subjects),"[4]; FAH+ subjects, 10 mg",1
same,Spouse or significant other estimate of frequency of intoxication: Never (share of subjects),"[4]; FAH+ subjects, 10 mg",5%
same,Spouse or significant other estimate of frequency of intoxication: Once or twice (number of subjects),"[4]; FAH+ subjects, 10 mg",6
same,Spouse or significant other estimate of frequency of intoxication: Once or twice (share of subjects),"[4]; FAH+ subjects, 10 mg",32%
same,Spouse or significant other estimate of frequency of intoxication: Several times a month (number of subjects),"[4]; FAH+ subjects, 10 mg",8
same,Spouse or significant other estimate of frequency of intoxication: Several times a month (share of subjects),"[4]; FAH+ subjects, 10 mg",42%
same,reduction of mean number of HDDs versus baseline,"[4]; FAH+ subjects, 40 mg daily oral, 4th month of treatment",about 60%
same,ratio of the number of HDDs to DDs,"[4]; FAH+ subjects, 40 mg daily, after treatment, baseline 85%",43%
same,number of DDs,"[4]; FAH+ subjects, 40 mg once daily",clear reduction
same,mean number of HDDs per month (28 days),"[4]; FAH+ subjects, 40 mg once daily oral, on treatment, baseline 14.5",6.0
same,mean number of drinks (monthly total alcohol consumption) as % of baseline,"[4]; FAH+ subjects, 40 mg, 4th month",about 40%
same,Spouse or significant other estimate of frequency of intoxication: At least once a week (number of subjects),"[4]; FAH+ subjects, 40 mg",0
same,Spouse or significant other estimate of frequency of intoxication: At least once a week (share of subjects),"[4]; FAH+ subjects, 40 mg",0%
same,Spouse or significant other estimate of frequency of intoxication: Every day (number of subjects),"[4]; FAH+ subjects, 40 mg",0
same,Spouse or significant other estimate of frequency of intoxication: Every day (share of subjects),"[4]; FAH+ subjects, 40 mg",0%
same,Spouse or significant other estimate of frequency of intoxication: Never (number of subjects),"[4]; FAH+ subjects, 40 mg",3
same,Spouse or significant other estimate of frequency of intoxication: Never (share of subjects),"[4]; FAH+ subjects, 40 mg",14%
same,Spouse or significant other estimate of frequency of intoxication: Once or twice (number of subjects),"[4]; FAH+ subjects, 40 mg",9
same,Spouse or significant other estimate of frequency of intoxication: Once or twice (share of subjects),"[4]; FAH+ subjects, 40 mg",41%
same,Spouse or significant other estimate of frequency of intoxication: Several times a month (number of subjects),"[4]; FAH+ subjects, 40 mg",14
same,Spouse or significant other estimate of frequency of intoxication: Several times a month (share of subjects),"[4]; FAH+ subjects, 40 mg",45%
same,mean number of heavy drinking days reduced by,"[4]; FAH+ subjects, daily oral 40 mg, fourth month of treatment (as worded)",40%
same,treatment effects on alcohol consumption versus placebo,[4]; FAH- subjects,not distinguishable from placebo
same,Spouse or significant other estimate of frequency of intoxication: At least once a week (number of subjects),"[4]; FAH- subjects, 10 mg",1
same,Spouse or significant other estimate of frequency of intoxication: At least once a week (share of subjects),"[4]; FAH- subjects, 10 mg",9%
same,Spouse or significant other estimate of frequency of intoxication: Every day (number of subjects),"[4]; FAH- subjects, 10 mg",1
same,Spouse or significant other estimate of frequency of intoxication: Every day (share of subjects),"[4]; FAH- subjects, 10 mg",9%
same,Spouse or significant other estimate of frequency of intoxication: Never (number of subjects),"[4]; FAH- subjects, 10 mg",1
same,Spouse or significant other estimate of frequency of intoxication: Never (share of subjects),"[4]; FAH- subjects, 10 mg",9%
same,Spouse or significant other estimate of frequency of intoxication: Once or twice (number of subjects),"[4]; FAH- subjects, 10 mg",4
same,Spouse or significant other estimate of frequency of intoxication: Once or twice (share of subjects),"[4]; FAH- subjects, 10 mg",36%
same,Spouse or significant other estimate of frequency of intoxication: Several times a month (number of subjects),"[4]; FAH- subjects, 10 mg",4
same,Spouse or significant other estimate of frequency of intoxication: Several times a month (share of subjects),"[4]; FAH- subjects, 10 mg",36%
same,Spouse or significant other estimate of frequency of intoxication: At least once a week (number of subjects),"[4]; FAH- subjects, 40 mg",1
same,Spouse or significant other estimate of frequency of intoxication: At least once a week (share of subjects),"[4]; FAH- subjects, 40 mg",8%
same,Spouse or significant other estimate of frequency of intoxication: Every day (number of subjects),"[4]; FAH- subjects, 40 mg",1
same,Spouse or significant other estimate of frequency of intoxication: Every day (share of subjects),"[4]; FAH- subjects, 40 mg",8%
same,Spouse or significant other estimate of frequency of intoxication: Never (number of subjects),"[4]; FAH- subjects, 40 mg",2
same,Spouse or significant other estimate of frequency of intoxication: Never (share of subjects),"[4]; FAH- subjects, 40 mg",15%
same,Spouse or significant other estimate of frequency of intoxication: Once or twice (number of subjects),"[4]; FAH- subjects, 40 mg",3
same,Spouse or significant other estimate of frequency of intoxication: Once or twice (share of subjects),"[4]; FAH- subjects, 40 mg",23%
same,Spouse or significant other estimate of frequency of intoxication: Several times a month (number of subjects),"[4]; FAH- subjects, 40 mg",5
same,Spouse or significant other estimate of frequency of intoxication: Several times a month (share of subjects),"[4]; FAH- subjects, 40 mg",38%
same,number of HDDs,"[4]; FAH- subjects, nalmefene 10 mg or 40 mg once daily",no clear treatment effects
same,mean number of drinks (monthly total alcohol consumption),"[4]; FAH- subjects, throughout the study",remained almost unchanged
